Values of other authors in paper PMC8329336, “The Role of Co-Signaling Molecules in Psoriasis and Their Implications for Targeted Treatment” (Frontiers in Pharmacology, 2021).
Like-named read-outs stand apart in the source and are kept apart here.

What was measured:
[1] = test system: ICAM-1; set-up: method as in Wen et al., 2014; Xiong et al., 2015; conditions: ref Wen et al., 2014; Xiong et al., 2015
[2] = test system: p40 subunits of IL-23 and IL-12; set-up: method as in Lebwohl et al., 2015; conditions: through binding to the p40 subunits of IL-23 and IL-12; ref Lebwohl et al., 2015
[3] = test system: human T cells; set-up: method as in Kuschei et al., 2011; conditions: ref Kuschei et al., 2011
[4] = test system: LFA-1; set-up: method as in Guttman-Yassky et al., 2008; Grönholm et al., 2016; conditions: ref Guttman-Yassky et al., 2008; Grönholm et al., 2016
[5] = test system: LFA-1; conditions: led to withdrawal from the US market in 2009; ref Kuschei et al., 2011; Hsu and Tsai, 2020
[6] = test system: OX40
[7] = test system: CD40; conditions: for Efficacy (PASI scores of psoriasis) / Adverse event: patients with psoriasis, ref Anil Kumar et al. (2018); for Efficacy (PASI scores of psoriasis): Phase I; for Adverse event: limited number of patients
[8] = Phase I, ref Papp et al. (2017)

Molecule: CC(C)=CCC[C@]1(C)C=Cc2c(O)c3c(c(CC=C(C)C)c2O1)O[C@]12C(=C[C@@H]4C[C@H]1C(C)(C)O[C@@]2(C/C=C(/C)C(=O)O)C4=O)C3=O [gambogic acid]
- effect on psoriasis [1]: improve
- expression of ICAM-1 [1]: inhibiting

Molecule: CC1(C)[C@@H](O[C@H]2O[C@H](C(=O)O)[C@@H](O)[C@H](O)[C@H]2O[C@@H]2O[C@H](C(=O)O)[C@@H](O)[C@H](O)[C@H]2O)CC[C@]2(C)[C@H]3C(=O)C=C4[C@@H]5C[C@@](C)(C(=O)O)CC[C@]5(C)CC[C@@]4(C)[C@]3(C)CC[C@@H]12 [glycyrrhizin]
- effect on psoriasis [1]: improve
- expression of ICAM-1 [1]: inhibiting

Molecule: Anti-p40: approved drug for psoriasis treatment, binds to the p40 subunits of IL-23 and IL-12
- IL-23A-induced IL-17A production [2]: inhibit

Molecule: Efalizumab: humanized monoclonal antibody against LFA-1
- co-stimulatory molecules ICOS, OX40, CD27, and 4-1BB ([3]; human T cells): downregulating
- proliferation and cytokine production of human T cells [3]: potently inhibiting
- cell-surface molecules involved in T cell activation (CD3, TCR, CD4, CD8, CD28, integrin VLA-4) [4]: downregulate
- Adverse event [5]: Progressive multifocal leukoencephalopathy

Molecule: KHK4083: fully human monoclonal antibody against OX40
- Adverse event [6, 8]: Mild or moderate chills, infusion site reactions
- PASI scores [6, 8]: PASI scores↓
- efficacy ([6]; highest dose (10 mg/ kg), patients with mild to moderate plaque psoriasis, ref Papp et al., 2017): good efficacy
- safety and tolerability ([6]; phase I study, ref Papp et al., 2017): safe and well tolerated

B1: Bleselumab: fully human IgG4 monoclonal antibody (mAb) that targets CD40 (antibody, chains of the INN, looked up, V domains shown)
VH: QLQLQESGPGLLKPSETLSLTCTVSGGSISSPGYYGGWIRQPPGKGLEWIGSIYKSGSTYHNPSLKSRVTISVDTSKNQFSLKLSSVTAADTAVYYCTRPVVRYFGWFDPWGQGTLVTVSS
VL: AIQLTQSPSSLSASVGDRVTITCRASQGISSALAWYQQKPGKAPKLLIYDASNLESGVPSRFSGSGSGTDFTLTISSLQPEDFATYYCQQFNSYPTFGQGTKVEIK
- clinically malignant events ([7]; as compared to CD40L-specific mAbs, ref Anil Kumar et al., 2018): no clinically malignant events
- Efficacy (PASI scores of psoriasis) [7]: Ineffective
- Efficacy (PASI scores of psoriasis) ([7]; listed as bleselumab): did not improve
- Adverse event [7]: Transient elevations of liver transaminase enzymes
- Adverse event ([7]; listed as bleselumab): transient elevations in liver transaminase enzymes
